Reference: PubChem BioAssay AID1963844 (Molecular Pharmacology Branch, DTP, NCI, 2024)
“And” between values parts separate entries of the source, which are not always exact repeats. Equal values may be shown once.

Tested on: 422866-222-R5-J1-PDC complex spheroid viability
Test: Anticancer human tumor 422866-222-R5-J1-PDC patient-derived pancreatic adenocarcinoma cell line growth inhibition [POLQ]
Settings: for viability, T/C: stronger effect = lower value
Protocol: Multicellular complex tumor spheroid response to Polymerase (POL) inhibitors (novobiocin, ART-558, RP6685) in combination with a variety of drugs and investigational agents in selected tumor cell lines
The POL inhibitors (novobiocin, ART-558, and RP6685) were evaluated both individually and in combination with standard of care and investigational anticancer small molecules within a complex spheroid model of solid tumors. . Complex spheroids include a stromal component modeled by human endothelial cells (HUVEC) and fibroblasts modeled by human mesenchymal stem cells (MSCs). The concentration ranges selected for each drug and investigational agent were based upon clinically achievable concentrations if the clinical Cmax of the agent was known.
Compounds. The drugs and investigational agents: novobiocin (NSC847541), ART-558 (NSC835418), RP-6685 (NSC848927), peposertib (NSC802822), ceralasertib (NSC780249), elimusertib (NSC800525), camonsertib (NSC841442), AZD-1390 (NSC803789), olaparib (NSC753686), talazoparib (NSC767125), rucaparib (NSC756644), sotorasib (NSC818433), MRTX-1133 (NSC836407), SN-38 (NSC673596), topotecan (NSC609699), epotoside (NSC141540), doxorubicin (NSC123127), gemcitabine (NSC613327), 5-fluorouracil (NSC19893), paclitaxel (NSC125973), vemurafenib (NSC761431), MSA-2 (NSC828583), SN-011 (NSC837082), adavosertib (NSC754352), prexasertib (NSC758257), carboplatin (NSC241240) and oxaliplatin (NSC266046), were obtained from the National Cancer Institute (NCI) Developmental Therapeutics Program Chemical Repository (21). The FDA-approved anticancer drug set is available from the Developmental Therapeutics Program at https://dtp.cancer.gov/organization/dscb/obtaining/. […] The stock solutions were prepared in dimethyl sulfoxide (DMSO, Sigma-Aldrich, St. Louis, MO, cat. D2650), except for the platinum compounds which were prepared in saline (Quality Biological, Gaithersburg, MD, cat. 114-055-101), at 800-fold the tested concentration and stored at -70 degrees C prior to their use. All drugs and investigational agents were tested over a range starting from a high concentration at or near the clinical Cmax and decreasing in half-log increments. If the clinical Cmax for an agent had not been determined, the highest concentration tested was 10 microM, except for SN-38, which was tested at a high concentration of 1 microM.
Cell Culture. All cells were maintained in an incubator at 37 degrees C and 5% CO2 with 95% humidity. The PDC lines were cultured according to standard operating procedures established by the NCI PDMR (https://pdmr.cancer.gov). Table 3 of the manuscript, lists the cell lines along with the number of the three cell types plated to form the mct-spheroids and media for tumor cell growth. After thawing, all PDC lines, except 997537-175-T-J1-PDC and 415267-285-R-J2-PDC, were cultured in Matrigel-coated flasks prepared with a working solution of 1X Ham's F-12 nutrient mix, without supplementation (Thermo Fisher Scientific, cat. 11765054), 100 U/mL penicillin-streptomycin (Thermo Fisher Scientific, cat. 15140122), and 2.5% Matrigel (Corning Inc., Corning, NY, cat. 354248) for the first three passages. The two PDC lines 997537-175-T-J1-PDC and 415267-285-R-J2-PDC were cultured on uncoated flasks. The 857933-349-R-J2-PDC line was cultured in 6C/Colon 1B media containing advanced DMEM/F-12 (Thermo Fisher Scientific, cat. 12634028), 10 mM HEPES (Thermo Fisher Scientific, cat. 15630080), 1X GlutaMAX supplement (Thermo Fisher Scientific, cat. 35050061), 0.1 mg/mL primocin (InvivoGen, San Diego, CA, cat. ant-pm-2), 10% defined fetal bovine serum, heat inactivated (HyClone Laboratories Inc., Logan, UT, cat. SH30070.03HI), 50% L-WRN conditioned media (ATCC, cat. CRL-3276), 1.25 mM N-Acetyl-L-cysteine (Sigma-Aldrich, cat. A9165), 10 mM nicotinamide (Sigma-Aldrich, cat. N0636), 1X B-27 supplement (Thermo Fisher Scientific, cat. 17504044), 1X N-2 supplement (Thermo Fisher Scientific, cat. […]

[1] = curve of first compound, second compound 0.0316 µM
[2] = curve of first compound, second compound 0.1 µM
[3] = curve of first compound, second compound 0.316 µM
[4] = curve of first compound, second compound 1 µM
[5] = curve of first compound, second compound 3.16 µM
[6] = curve of first compound, second compound 10 µM
[7] = second compound 0.0316 µM, first compound 0.0316 µM
[8] = second compound 0.0316 µM, first compound 0.1 µM
[9] = second compound 0.0316 µM, first compound 0.316 µM
[10] = second compound 0.0316 µM, first compound 1 µM
[11] = second compound 0.0316 µM, first compound 3.16 µM
[12] = second compound 0.0316 µM, first compound 10 µM
[13] = second compound 0.1 µM, first compound 0.0316 µM
[14] = second compound 0.1 µM, first compound 0.1 µM
[15] = second compound 0.1 µM, first compound 0.316 µM
[16] = second compound 0.1 µM, first compound 1 µM
[17] = second compound 0.1 µM, first compound 3.16 µM
[18] = second compound 0.1 µM, first compound 10 µM
[19] = second compound 0.316 µM, first compound 0.0316 µM
[20] = second compound 0.316 µM, first compound 0.1 µM
[21] = second compound 0.316 µM, first compound 0.316 µM
[22] = second compound 0.316 µM, first compound 1 µM
[23] = second compound 0.316 µM, first compound 3.16 µM
[24] = second compound 0.316 µM, first compound 10 µM
[25] = second compound 1 µM, first compound 0.0316 µM
[26] = second compound 1 µM, first compound 0.1 µM
[27] = second compound 1 µM, first compound 0.316 µM
[28] = second compound 1 µM, first compound 1 µM
[29] = second compound 1 µM, first compound 3.16 µM
[30] = second compound 1 µM, first compound 10 µM
[31] = second compound 3.16 µM, first compound 0.0316 µM
[32] = second compound 3.16 µM, first compound 0.1 µM
[33] = second compound 3.16 µM, first compound 0.316 µM
[34] = second compound 3.16 µM, first compound 1 µM
[35] = second compound 3.16 µM, first compound 3.16 µM
[36] = second compound 3.16 µM, first compound 10 µM
[37] = second compound 10 µM, first compound 0.0316 µM
[38] = second compound 10 µM, first compound 0.1 µM
[39] = second compound 10 µM, first compound 0.316 µM
[40] = second compound 10 µM, first compound 1 µM
[41] = second compound 10 µM, first compound 3.16 µM
[42] = second compound 10 µM, first compound 10 µM
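Further: spheroids exposed to compounds for one week before readout.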
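Wherever viability, T/C is given: percent of DMSO vehicle wells luminescence so 100% = untreated viability.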

CC1COCCN1c1cc(C2(S(C)(=N)=O)CC2)nc(-c2ccnc3[nH]ccc23)n1 (stereo not drawn) + Nc1ccc(C#CCN(C(=O)Cc2ncc(C(F)(F)F)cc2C(F)(F)F)c2ccc(F)cc2)nn1
IC50 [1]: 2460 nM | IC50 [2]: 1830 nM | IC50 [3]: 1750 nM | IC50 [4]: 2120 nM | IC50 [5]: 1740 nM | IC50 [6]: 1900 nM | viability, T/C [7]: 105% | viability, T/C [8]: 81.7% | viability, T/C [9]: 80.9% | viability, T/C [10]: 64.5% | viability, T/C [11]: 38% | viability, T/C [12]: 42.6% | viability, T/C [13]: 92% | viability, T/C [14]: 96.5% | viability, T/C [15]: 95.3% | viability, T/C [16]: 58.9% | viability, T/C [17]: 41.4% | viability, T/C [18]: 42.2% | viability, T/C [19]: 89.8% | viability, T/C [20]: 96% | viability, T/C [21]: 89.7% | viability, T/C [22]: 65.6% | viability, T/C [23]: 32.5% | viability, T/C [24]: 34% | viability, T/C [25]: 107% | viability, T/C [26]: 112% | viability, T/C [27]: 92.4% | viability, T/C [28]: 70.5% | viability, T/C [29]: 38.7% | viability, T/C [30]: 28.2% | viability, T/C [31]: 87.3% | viability, T/C [32]: 108% | viability, T/C [33]: 98.8% | viability, T/C [34]: 57.2% | viability, T/C [35]: 40.8% | viability, T/C [36]: 43.5% | viability, T/C [37]: 109% | viability, T/C [38]: 117% | viability, T/C [39]: 102% | viability, T/C [40]: 65.9% | viability, T/C [41]: 37.8% | viability, T/C [42]: 31.8%

C#Cc1c(F)ccc2cc(O)cc(-c3ncc4c(N5CC6CCC(C5)N6)nc(OCC56CCCN5CC(F)C6)nc4c3F)c12 (stereo not drawn) + Cc1cccc(N(C)C(=O)C2C(O)CCN2c2nc(C)cc(C(F)(F)F)c2C#N)c1
IC50 [1]: 758 nM | IC50 [2]: 1090 nM | IC50 [3]: 762 nM | IC50 [4]: 712 nM | IC50 [5]: 480 nM | IC50 [6]: 465 nM | viability, T/C [7]: 104% | viability, T/C [8]: 79.8% | viability, T/C [9]: 65.2% | viability, T/C [10]: 45.5% | viability, T/C [11]: 33% | viability, T/C [12]: 28.7% | viability, T/C [13]: 92.1% | viability, T/C [14]: 87.2% | viability, T/C [15]: 65.7% | viability, T/C [16]: 54.6% | viability, T/C [17]: 33.3% | viability, T/C [18]: 25.9% | viability, T/C [19]: 102% | viability, T/C [20]: 80% | viability, T/C [21]: 67.6% | viability, T/C [22]: 46% | viability, T/C [23]: 29.3% | viability, T/C [24]: 29.1% | viability, T/C [25]: 95.8% | viability, T/C [26]: 96.9% | viability, T/C [27]: 68.1% | viability, T/C [28]: 43.7% | viability, T/C [29]: 33.5% | viability, T/C [30]: 32% | viability, T/C [31]: 92.8% | viability, T/C [32]: 74.4% | viability, T/C [33]: 57% | viability, T/C [34]: 40.8% | viability, T/C [35]: 30.3% | viability, T/C [36]: 33.9% | viability, T/C [37]: 84.3% | viability, T/C [38]: 69.2% | viability, T/C [39]: 56.1% | viability, T/C [40]: 39.9% | viability, T/C [41]: 32.3% | viability, T/C [42]: 27.6%

O=c1[nH]cc(F)c(=O)[nH]1
viability, T/C (compound 0.0316 µM): 95.8% and 101% and 92% | viability, T/C (compound 0.1 µM): 103% and 93.5% and 99.9% | viability, T/C (compound 0.316 µM): 107% and 97.4% and 98.9% | viability, T/C (compound 1 µM): 85% and 101% and 80.7% | viability, T/C (compound 3.16 µM): 73.7% and 83.7% and 89.8% | viability, T/C (compound 10 µM): 74.5% and 73.4% and 72.8% | IC50 (curve of compound): > 10000 nM

COc1ccc([C@@H](O)c2cc(-c3ncnc4cc(N5CCOCC5)ccc34)c(F)cc2Cl)nn1
viability, T/C (compound 0.0316 µM): 80.3% and 87.1% and 99.6% | viability, T/C (compound 0.1 µM): 84.6% and 77% and 79.5% | viability, T/C (compound 0.316 µM): 76.6% and 85.4% and 75.6% | viability, T/C (compound 1 µM): 62.4% and 59% and 67.8% | viability, T/C (compound 3.16 µM): 43.3% and 51.7% and 45.8% | viability, T/C (compound 10 µM): 35.5% and 35.1% and 37.1% | IC50 (curve of compound): 2100 nM and 2820 nM and 3020 nM
